Data set [1] addresses T1, ThyX (Paramecium bursaria Chlorella virus 1, UniProt O41156). The data set is described as follows: biochemical.
The subject of the next data set is E. coli MG1655. In words: Growth of wild type, thyA-carrying E. coli.
Data set [2] deals with E. coli FE010 (ΔthyA::thyX). Particulars: 1.5 μg/ml (≈5 μM), thymidine-deprived medium.
Data set [3] addresses T1, ThyX. Particulars: varying dUMP concentrations.
Data set [4] has as its target T2, PBCV-1 ThyX (Paramecium bursaria Chlorella virus 1, UniProt O41156). In words: NADPH oxidation assay, screen and IC50 by dose-response curves.
Protocol: The NADPH oxidation assay for PBCV-1 ThyX activity (Graziani, S., Xia, Y., Gurnon, J. R., Van Etten, J. L., Leduc, D., Skouloubris, S., Myllykallio, H., and Liebl, U. (2004) Functional analysis of FAD-dependent thymidylate synthase ThyX from Paramecium bursaria Chlorella virus-1. J. Biol. Chem. 279, 54340-54347) was adapted for a medium throughput inhibitor screen (MTS) in 96-well plates. A typical assay with a final volume of 200 μl, contained 200 μM NADPH, 2 μM CH2H4folate, 5 μM dUMP, 1 mM MgCl2, 1% glycerol, 62.5 μM FAD and 400 nM PBCV-1 ThyX. 1982 compounds from the National Cancer Institute diversity set 1 and 340 natural compounds, selected for their diversity and drug-likeness (GreenPharma) (all in DMSO) were added to a final concentration of 20 μM for the initial screen. The microplates were prepared by a liquid handling robotic workstation (Xiril X75), and manually transferred to the automated microplate reader Chameleon II (Hidex). The reactions were started by automatically injecting NADPH into individual wells and the decrease in absorbance at 340 nm was followed at 37° C. for 5 min. Samples with added DMSO and no enzyme were used as positive and negative controls, respectively. For NADPH oxidation at 340 nm a molar extinction coefficient of 6220 M^−1 cm^−1 was used. For this assay a Z′-factor value of 0.62 was calculated, is indicating robustness of the measurement and an acceptable dynamic range of the signal (Zhang, J. H., Chung, T. D., and Oldenburg, K. R. (1999) J. Biomol. Screen. 4, 67-73). Primary hits were defined as compounds that inhibited 75% of ThyX activity at the initial screening concentration.
Compounds that inhibited PBCV-1 ThyX at 20 μM concentration in the NADPH oxidation assay were selected as hits. For each hit IC50 values were determined by fitting the data from three independent experiments to the equation for a dose-response sigmoid curve using GraphPad Prism 4 Software (GraphPad Software Inc.).
All tests were performed in triplicates in 96 well microtiter plates. A typical assay (200 μL) contained 200 μM NADPH, 2 μM dUMP, 1 mM MgCl2, 1% glycerol, 10 μM FAD, 200 nM of PBCV-1 ThyX and different concentrations of inhibitors ranging from 0.1 μM to 40 μM. The reactions were started by injection of NADPH and the absorbance at 340 nm was followed for 3 min at 37° C. […] A molar extinction coefficient for NADPH oxidation at 340 nm of 6220 M^−1 cm^−1 was used for quantification of absorption changes. The optical path length was 0.5 cm. The obtained Vi/V0 values were plotted for each inhibitor concentration and fitted to sigmoidal dose-response curves using GraphPad Prism 4 Software.
The target of data set [5] is T2, PBCV-1 ThyX. In words: Deprotonation (tritium release) assay of ThyX activity. The format is biochemical, Paramecium bursaria chlorella virus (PBCV-1). The settings on record: read-out: % inhibition (deprotonation) PBCV-1 ThyX.
Data set [6] has as its system Helicobacter pylori 26695. The data set is described as follows: MIC by broth microdilution / disc diffusion test. The format is cell-based. Here is the method: Helicobacter pylori strain 26695 and SS1 were grown on either blood agar base two (Oxoid) plates supplemented with 10% defibrinated horse blood (Oxoid) or in liquid culture in brain-heart infusion broth (Oxoid) supplemented with 10% FBS (Gibco BRL). An antibiotics-fungicide mix consisting of vancomycin (final concentration 10 μg/ml), polymyxin B (2.5 units per liter), trimethoprim (5 μg/ml), and fungizone (2.5 μg/ml) was added. Plates were incubated at 37° C. under microaerobic atmosphere in jars using the […] gas generating system (Oxoid). Liquid cultures were shaken at 175 rpm. Minimal inhibitory concentrations (MICS) were determined using a broth microdilution test in 24 well microtiter plates. […] The MIC was determined as the lowest compound concentration resulting in complete growth inhibition after 24 h of incubation. All the tests were done in triplicates and they included no cells and DMSO-only controls. […] For disc diffusion test an overnight culture of H. pylori strain 26695 was diluted to OD600≈0.01 and spread on agar plates by inundation. 10 μg of each compound were deposited onto diffusion discs and plates were incubated under microaerophilic conditions for 72 h. The diameters of each inhibition zone were measured (disk surface and a DMSO inhibition zone were subtracted). All experiments were done in triplicate, including a DMSO-only control on each plate. MIC determination by broth microdilution was not possible for M. smegmatis mc2 155 due to build up of cell aggregates in liquid cultures. The susceptibility of M. smegmatis mc2 155 towards selected compounds was thus tested using disc diffusion test on LB-agar plates as described above. The inhibition diameters were read after 48 h of incubation at 37° C.
Background: In broth dilution the organism is exposed to a series of concentrations in liquid medium.

Data set [7] concerns human lymphoblastoid TK6 cells. In words: GreenScreen HC genotoxicity and cytotoxicity assay.
Protocol: Two strains of cultured human lymphoblastoid TK6 cells were used, the test strain (GenM-T01) and the non-fluorescent control strain (GenM-001), the latter was used to allow correction for any autofluorescence from the test. The plates were analyzed at 24 hour and 48 hour time points using a microplate reader, that allows measurements of light absorbance and fluorescence for cells and solutions in the microplate wells. Absorbance is proportional to cell proliferation, which is lowered by toxic analytes, and fluorescence is proportional to the activity of the cell's DNA repair system, which is increased by genotoxic analytes. […] The GreenScreen HC +S9 protocol uses the same cultured TK6 cell strains (GenM-001 and GenMT01). […] (5% CO2, 95% humidity) for 3 hours. After a recovery period of 45 hours the GFP fluorescence signal and cell viability (assessed by propidium iodide uptake) were measured.
Data set [8] has as its system Mycobacterium smegmatis mc2 155. The data set is described as follows: Disc diffusion test on LB-agar plates. In kind it is cell-based. Here is the method:
Liquid cultures were shaken at 175 rpm. Minimal inhibitory concentrations (MICS) were determined using a broth microdilution test in 24 well microtiter plates. […] The MIC was determined as the lowest compound concentration resulting in complete growth inhibition after 24 h of incubation. All the tests were done in triplicates and they included no cells and DMSO-only controls. […] For disc diffusion test an overnight culture of H. pylori strain 26695 was diluted to OD600≈0.01 and spread on agar plates by inundation. 10 μg of each compound were deposited onto diffusion discs and plates were incubated under microaerophilic conditions for 72 h. The diameters of each inhibition zone were measured (disk surface and a DMSO inhibition zone were subtracted). All experiments were done in triplicate, including a DMSO-only control on each plate. MIC determination by broth microdilution was not possible for M. smegmatis mc2 155 due to build up of cell aggregates in liquid cultures. The susceptibility of M. smegmatis mc2 155 towards selected compounds was thus tested using disc diffusion test on LB-agar plates as described above. The inhibition diameters were read after 48 h of incubation at 37° C.

[9] abbreviates: Helicobacter pylori, H. pylori 26695, broth microdilution 24 h or derived from disc diffusion standard curve, read-out: MIC.

In brackets after ≈: the same amount, converted by molar mass. Read-outs that look alike come from different tables or passages of the source.

Consider 14 compounds from US20130102650A1, “ANTIMICROBIAL COMPOUNDS OF 1,4-NAPHTOQUINONE STRUCTURE” (priority 2010, published 2013).

What is called Ki is a measure of affinity in units of concentration, obtained from inhibition or displacement. For orientation: IC50 means the midpoint of a concentration-inhibition curve. High values mean lower potency, low ones higher potency. Broadly, the inhibition is the relative decrease from the control value, in per cent.

T1 sequence (O41156 whole entry): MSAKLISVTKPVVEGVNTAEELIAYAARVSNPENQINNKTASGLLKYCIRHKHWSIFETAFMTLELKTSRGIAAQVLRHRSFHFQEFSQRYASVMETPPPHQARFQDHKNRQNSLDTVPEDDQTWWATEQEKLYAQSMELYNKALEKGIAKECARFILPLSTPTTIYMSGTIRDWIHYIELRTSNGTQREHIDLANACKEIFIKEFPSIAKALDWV
T2 sequence (O41156 whole entry): as above

`O=C1C=C(Br)C(=O)c2c(O)cccc21` [Compound 2E04, 2-bromo-8-hydroxy-1,4-naphthoquinone] gave a Ki at ThyX [1] of 1.5 µM. Moreover, in the data set with E. coli MG1655, the “bactericidal activity on isogenic wild type strain” value was “not observed”. In data set [2], the “growth inhibition of E. coli FE010 (ΔthyA::thyX)” value is given as “reproducibly inhibited”. Moreover, the “effect on apparent Km of the enzyme for dUMP” value (from here on “effect on apparent Km”) on ThyX [3] was “increased the apparent Km value”.
`COc1ccc(C(=O)CC2=C(O)C(=O)c3ccccc3C2=O)cc1` [Compound G3-C1, 2-hydroxy-3-(2-(4-methoxyphenyl)-2-oxoethyl)-1,4-naphthoquinone]: it took 13 µM to reach half-maximal inhibition against PBCV-1 ThyX [4] (IC50). Besides, the inhibition at 20 µM on PBCV-1 ThyX [5] came to 22 ± 7%. The MIC in data set [6] (setting [9]) was found to be 10 µg/mL (≈ 31 µM).
In the case of `O=C(CC1=C(O)C(=O)c2ccccc2C1=O)c1ccccc1` [Compound E11-C1, 2-hydroxy-3-(2-oxo-2-phenylethyl)-1,4-naphthoquinone], the inhibition at 20 µM on PBCV-1 ThyX [5] came out at 36 ± 5%.
The same measure, in the same setting: next, `O=C(O)c1ccccc1NC1=CC(=O)c2c(O)cccc2C1=O` [Compound B3-C1, 2-(5-hydroxy-1,4-dioxo-1,4-dihydro-naphthalen-2-ylamino)benzoic acid]: 12 ± 6%.
With `O=C1C(O)=C(c2ccc(Br)cc2)C(=O)c2ccccc21` [Compound C8-S], the 50% inhibitory concentration (IC50) against PBCV-1 ThyX [4] is 1.2 µM. In data set [6] (Helicobacter pylori, 26695, 24 h), this compound gave an MIC of 7 µg/mL (≈ 21.3 µM).
For `O=C1C(O)=C(Cc2ccccc2)C(=O)c2ccccc21` [Compound A4-S], it took 1.4 µM to reach half-maximal inhibition at PBCV-1 ThyX [4] (IC50). Moreover, in data set [6] (setting [9]), the MIC was 1.4 µg/mL (≈ 5.3 µM).
`O=C1C(O)=C([C@H]2CC[C@H](c3ccc(Cl)cc3)CC2)C(=O)c2ccccc21` [atovaquone, reference compound] displayed an inhibition constant (Ki) on ThyX [1] of 5 µM. Further, at ThyX [3], the “effect on apparent Km” value is recorded as “increased the apparent Km value”.
Take `O=C1C(O)=C(c2ccc3ccccc3c2)C(=O)c2ccccc21` [Compound A7-S]: 1.2 µM corresponded to half-maximal inhibition at PBCV-1 ThyX [4] (IC50). Moreover, in data set [6] (setting [9]), the MIC was found to be 6 µg/mL (≈ 20 µM).
Regarding `Cc1ccc(C2=C(O)C(=O)c3ccccc3C2=O)cc1` [Compound A4-C2], the IC50 against PBCV-1 ThyX [4] was determined as 9 µM. Further, the MIC in data set [6] (setting [9]) came out at 4.7 µg/mL (≈ 17.8 µM).
Regarding `COc1ccc(C2=C(O)C(=O)c3ccccc3C2=O)cc1` [Compound A3-C2], at PBCV-1 ThyX [4], 8 µM corresponded to half-maximal inhibition (IC50). Also, the MIC in [6] (setting [9]) came to 4.7 µg/mL (≈ 16.8 µM).
Compound `O=C(CC1=C(O)C(=O)c2ccccc2C1=O)c1cccs1` [Compound H3-C1, 2-hydroxy-3-(2-oxo-2-(thiophen-2-yl)ethyl)-1,4-naphthoquinone] returned an IC50 against PBCV-1 ThyX [4] of 8 µM. Moreover, the inhibition at 20 µM on PBCV-1 ThyX [5] is 38 ± 3%. In [6] (setting [9]), the MIC is 10 µg/mL (≈ 33.5 µM).
At ThyX [1], `COc1ccc(CC2=C(O)C(=O)c3ccccc3C2=O)cc1` [Compound C8-C1, 2-hydroxy-3-(4-methoxybenzyl)-1,4-naphthoquinone] showed a Ki of 0.25 µM. The genotoxicity result in data set [7] (GreenScreen HC) is “non-genotoxic”. The “cytotoxic activity in metabolic activation tests” value in [7] (S9 fraction, 10 μg/ml) is recorded as “further decreased”. Also, in data set [7] (without metabolic activation), the cytotoxic activity result was “low cytotoxic activity”. The same compound registered a half-maximal inhibitory concentration (IC50) against PBCV-1 ThyX [4] of 5 µM. Moreover, at ThyX [3], the “effect on apparent Km” value is reported as “increased the apparent Km value”. The inhibition at 20 µM at PBCV-1 ThyX [5] amounted to 78 ± 4%. Besides, the “growth inhibition / antimicrobial activity against Helicobacter pylori 26695” value in data set [6] is reported as “inhibited the growth”. Besides, the MIC in [6] (Helicobacter pylori, 26695, disc diffusion tests and liquid cultures, read-out: minimal inhibitory concentration (MIC)) is ~2.5 µg/mL (≈ 8.49 µM); in [6] (setting [9]), 2.5 to 5 µg/mL (≈ 8.49 to 17 µM). Moreover, the “growth inhibition / antimicrobial activity against Mycobacterium smegmatis mc2155” value in data set [8] was “inhibited the growth”.
`Cc1ccc(C(=O)CC2=C(O)C(=O)c3ccccc3C2=O)cc1` [Compound F3-C1, 2-hydroxy-3-(2-oxo-2-p-tolylethyl)-1,4-naphthoquinone]: on PBCV-1 ThyX [5], the inhibition at 20 µM was found to be 38 ± 7%.
The compound `O=C1C(O)=C(c2ccc(-c3ccccc3)cc2)C(=O)c2ccccc21` [Compound F6-C1, 2-(biphenyl-4-yl)-3-hydroxy-1,4-naphthoquinone] yielded an IC50 on PBCV-1 ThyX [4] of 0.2 µM. Besides, the inhibition at 20 µM on PBCV-1 ThyX [5] was determined as 95 ± 3%. Also, the MIC in data set [6] (setting [9]) was 10 µg/mL (≈ 30.6 µM).
